# Columns and labels:
# Conditions in all cases: compound 10.0 µM
# ADCK3 (human) = ADCK3 (human) (UniProt Q8NI60)
# CAMK2A (human) = CAMK2A (human) (UniProt Q9UQM7)
# CAMK2B (human) = CAMK2B (human) (UniProt Q13554)
# CAMK2D (human) = CAMK2D (human) (UniProt Q13557)
# CDK13 (human) = CDK13 (human) (UniProt Q14004)
# CDKL3 (human) = CDKL3 (human) (UniProt Q8IVW4)
# CLK3 (human) = CLK3 (human) (UniProt P49761)
# CSNK1A1L (human) = CSNK1A1L (human) (UniProt Q8N752)
# CSNK2A2 (human) = CSNK2A2 (human) (UniProt P19784)
# DAPK2 (human) = DAPK2 (human) (UniProt Q9UIK4)
# DAPK2 (human), sequence (Q9UIK4 whole entry, looked up): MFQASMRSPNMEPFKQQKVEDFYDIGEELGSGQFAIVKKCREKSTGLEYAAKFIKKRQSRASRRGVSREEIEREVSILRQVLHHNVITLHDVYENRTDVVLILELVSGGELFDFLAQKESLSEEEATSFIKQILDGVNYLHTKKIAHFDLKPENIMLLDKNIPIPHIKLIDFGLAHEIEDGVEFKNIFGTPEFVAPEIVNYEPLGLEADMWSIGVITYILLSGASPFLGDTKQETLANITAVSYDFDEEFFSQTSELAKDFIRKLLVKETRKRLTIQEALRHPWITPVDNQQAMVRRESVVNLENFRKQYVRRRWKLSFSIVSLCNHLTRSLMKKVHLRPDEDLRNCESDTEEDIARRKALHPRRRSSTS
# EPHA5 (human) = EPHA5 (human) (UniProt P54756)
# EPHA5 (human), sequence (P54756 whole entry, looked up): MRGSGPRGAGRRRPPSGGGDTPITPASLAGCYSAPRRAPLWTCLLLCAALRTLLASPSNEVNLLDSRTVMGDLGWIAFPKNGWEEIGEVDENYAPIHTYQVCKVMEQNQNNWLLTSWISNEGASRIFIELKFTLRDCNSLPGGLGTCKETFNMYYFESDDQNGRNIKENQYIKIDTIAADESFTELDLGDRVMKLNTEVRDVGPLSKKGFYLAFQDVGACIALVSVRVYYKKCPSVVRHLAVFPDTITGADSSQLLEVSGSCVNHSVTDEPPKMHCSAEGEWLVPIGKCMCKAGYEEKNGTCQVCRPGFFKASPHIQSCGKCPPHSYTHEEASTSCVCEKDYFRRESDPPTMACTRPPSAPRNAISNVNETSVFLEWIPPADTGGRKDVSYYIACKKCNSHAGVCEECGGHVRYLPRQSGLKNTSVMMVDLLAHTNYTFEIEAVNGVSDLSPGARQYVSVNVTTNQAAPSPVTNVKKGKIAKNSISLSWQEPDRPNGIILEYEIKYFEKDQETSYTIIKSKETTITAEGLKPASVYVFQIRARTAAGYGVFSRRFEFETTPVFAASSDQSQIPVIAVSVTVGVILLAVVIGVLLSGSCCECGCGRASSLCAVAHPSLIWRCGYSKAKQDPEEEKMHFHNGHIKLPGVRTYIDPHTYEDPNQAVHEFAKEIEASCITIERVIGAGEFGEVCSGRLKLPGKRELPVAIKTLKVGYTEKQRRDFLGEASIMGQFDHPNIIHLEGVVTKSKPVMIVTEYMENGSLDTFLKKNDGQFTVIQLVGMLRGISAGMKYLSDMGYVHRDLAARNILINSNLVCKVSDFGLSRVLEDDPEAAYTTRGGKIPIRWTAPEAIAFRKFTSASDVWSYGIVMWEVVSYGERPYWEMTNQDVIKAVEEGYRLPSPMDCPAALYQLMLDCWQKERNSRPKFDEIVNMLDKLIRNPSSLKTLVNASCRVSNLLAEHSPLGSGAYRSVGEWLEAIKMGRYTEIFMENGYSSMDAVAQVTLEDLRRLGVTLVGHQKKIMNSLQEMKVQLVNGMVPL
# EPHB6 (human) = EPHB6 (human) (UniProt O15197)
# FGR (human) = FGR (human) (UniProt P09769)
# [1] = tested on: FLT3 (human), P36888 [R834Q]
# GAK (human) = GAK (human) (UniProt O14976)
# GRK7 (human) = GRK7 (human) (UniProt Q8WTQ7)
# HIPK1 (human) = HIPK1 (human) (UniProt Q86Z02)
# LTK (human) = LTK (human) (UniProt P29376)
# LYN (human) = LYN (human) (UniProt P07948)
# MAK (human) = MAK (human) (UniProt P20794)
# MAP3K10 (human) = MAP3K10 (human) (UniProt Q02779)
# MAP4K4 (human) = MAP4K4 (human) (UniProt O95819)
# MAPK13 (human) = MAPK13 (human) (UniProt O15264)
# MAPK13 (human), sequence (O15264 whole entry, looked up): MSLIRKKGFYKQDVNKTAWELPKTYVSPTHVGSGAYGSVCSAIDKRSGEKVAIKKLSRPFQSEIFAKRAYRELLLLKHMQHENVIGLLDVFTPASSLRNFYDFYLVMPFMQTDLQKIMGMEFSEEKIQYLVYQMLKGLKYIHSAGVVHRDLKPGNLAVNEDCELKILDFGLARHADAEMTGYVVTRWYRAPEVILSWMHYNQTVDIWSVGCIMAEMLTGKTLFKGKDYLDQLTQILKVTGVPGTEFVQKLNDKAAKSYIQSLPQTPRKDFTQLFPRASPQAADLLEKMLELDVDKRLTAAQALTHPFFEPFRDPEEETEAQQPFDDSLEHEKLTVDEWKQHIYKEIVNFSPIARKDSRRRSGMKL
# MAPK3 (human) = MAPK3 (human) (UniProt P27361)
# MAPK8 (human) = MAPK8 (human) (UniProt P45983)
# MARK4 (human) = MARK4 (human) (UniProt Q96L34)
# MERTK (human) = MERTK (human) (UniProt Q12866)
# MERTK (human), sequence (Q12866 whole entry, looked up): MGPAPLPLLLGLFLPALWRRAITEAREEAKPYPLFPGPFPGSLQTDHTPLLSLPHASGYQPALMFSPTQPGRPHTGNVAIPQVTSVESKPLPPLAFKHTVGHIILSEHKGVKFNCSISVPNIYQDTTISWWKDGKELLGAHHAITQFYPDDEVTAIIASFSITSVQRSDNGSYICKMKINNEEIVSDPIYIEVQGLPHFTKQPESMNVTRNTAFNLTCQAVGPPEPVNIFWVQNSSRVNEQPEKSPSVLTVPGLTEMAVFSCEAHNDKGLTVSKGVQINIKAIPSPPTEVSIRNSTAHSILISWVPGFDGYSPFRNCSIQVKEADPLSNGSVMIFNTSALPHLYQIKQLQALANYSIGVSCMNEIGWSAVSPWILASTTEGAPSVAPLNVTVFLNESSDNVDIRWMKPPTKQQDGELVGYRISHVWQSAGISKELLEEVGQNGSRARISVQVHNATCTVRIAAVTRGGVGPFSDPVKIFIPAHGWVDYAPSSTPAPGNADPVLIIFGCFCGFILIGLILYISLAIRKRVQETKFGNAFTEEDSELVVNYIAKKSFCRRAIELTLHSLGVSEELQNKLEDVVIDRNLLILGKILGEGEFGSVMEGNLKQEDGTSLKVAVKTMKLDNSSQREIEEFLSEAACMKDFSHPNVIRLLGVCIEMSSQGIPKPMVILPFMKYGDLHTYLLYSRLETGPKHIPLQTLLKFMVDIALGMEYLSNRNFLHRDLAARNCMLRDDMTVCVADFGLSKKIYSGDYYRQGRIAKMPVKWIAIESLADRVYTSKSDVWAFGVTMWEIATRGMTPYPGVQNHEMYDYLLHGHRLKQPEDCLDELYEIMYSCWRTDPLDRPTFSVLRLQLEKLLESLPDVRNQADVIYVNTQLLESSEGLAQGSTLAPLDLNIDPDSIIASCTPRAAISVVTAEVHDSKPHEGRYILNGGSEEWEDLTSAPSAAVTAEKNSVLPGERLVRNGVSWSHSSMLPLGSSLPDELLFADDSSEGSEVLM
# MYLK4 (human) = MYLK4 (human) (UniProt Q86YV6)
# NEK11 (human) = NEK11 (human) (UniProt Q8NG66)
# PAK7 (human) = PAK7 (human) (UniProt Q9P286)
# PHKG1 (human) = PHKG1 (human) (UniProt Q16816)
# PIM1 (human) = PIM1 (human) (UniProt P11309)
# PIP4K2B (human) = PIP4K2B (human) (UniProt P78356)
# PLK1 (human) = PLK1 (human) (UniProt P53350)
# PRKG2 (human) = PRKG2 (human) (UniProt Q13237)
# PTK2B (human) = PTK2B (human) (UniProt Q14289)
# [2] = tested on: RET (human), P07949 [V804L]
# RET (human), P07949 [V804L], sequence (P07949 whole entry V804L, looked up): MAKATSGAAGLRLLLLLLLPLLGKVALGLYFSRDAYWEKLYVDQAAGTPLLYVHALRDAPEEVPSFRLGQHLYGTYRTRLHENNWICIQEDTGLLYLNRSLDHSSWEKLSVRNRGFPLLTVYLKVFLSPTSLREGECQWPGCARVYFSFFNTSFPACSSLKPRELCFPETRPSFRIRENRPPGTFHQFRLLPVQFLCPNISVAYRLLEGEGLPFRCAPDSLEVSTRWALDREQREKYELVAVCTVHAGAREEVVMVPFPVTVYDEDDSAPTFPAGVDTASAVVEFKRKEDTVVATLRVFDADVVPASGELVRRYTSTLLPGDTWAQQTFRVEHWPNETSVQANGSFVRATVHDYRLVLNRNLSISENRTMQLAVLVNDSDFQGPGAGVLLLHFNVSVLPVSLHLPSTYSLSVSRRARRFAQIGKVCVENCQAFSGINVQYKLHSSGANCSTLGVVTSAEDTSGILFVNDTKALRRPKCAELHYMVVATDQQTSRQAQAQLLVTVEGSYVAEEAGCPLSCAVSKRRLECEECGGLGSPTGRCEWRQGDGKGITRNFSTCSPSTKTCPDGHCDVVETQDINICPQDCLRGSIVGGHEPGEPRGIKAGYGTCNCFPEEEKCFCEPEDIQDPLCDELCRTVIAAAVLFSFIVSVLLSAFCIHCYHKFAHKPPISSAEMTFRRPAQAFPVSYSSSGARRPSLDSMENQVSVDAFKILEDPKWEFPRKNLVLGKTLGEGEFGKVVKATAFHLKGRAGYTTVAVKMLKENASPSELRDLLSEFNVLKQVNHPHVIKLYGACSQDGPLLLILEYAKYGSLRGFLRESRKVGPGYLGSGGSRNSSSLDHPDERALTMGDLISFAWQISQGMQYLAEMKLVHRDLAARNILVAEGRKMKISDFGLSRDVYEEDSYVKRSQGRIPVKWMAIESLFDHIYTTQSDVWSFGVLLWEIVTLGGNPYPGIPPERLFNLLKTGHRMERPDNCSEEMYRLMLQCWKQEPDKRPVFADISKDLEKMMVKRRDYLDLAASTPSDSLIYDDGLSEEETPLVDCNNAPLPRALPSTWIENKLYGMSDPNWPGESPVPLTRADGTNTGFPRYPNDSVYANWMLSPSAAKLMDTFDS
# [3] = tested on: RET (human), P07949 [V804M]
# RET (human), P07949 [V804M], sequence (P07949 whole entry V804M, looked up): as the sequence (P07949 whole entry V804L, looked up) above, with L804M counted along it
# RIPK1 (human) = RIPK1 (human) (UniProt Q13546)
# SRMS (human) = SRMS (human) (UniProt Q9H3Y6)
# TAOK1 (human) = TAOK1 (human) (UniProt Q7L7X3)
# WEE1 (human) = WEE1 (human) (UniProt P30291)
# CAMK2B (human), sequence (Q13554 whole entry, looked up): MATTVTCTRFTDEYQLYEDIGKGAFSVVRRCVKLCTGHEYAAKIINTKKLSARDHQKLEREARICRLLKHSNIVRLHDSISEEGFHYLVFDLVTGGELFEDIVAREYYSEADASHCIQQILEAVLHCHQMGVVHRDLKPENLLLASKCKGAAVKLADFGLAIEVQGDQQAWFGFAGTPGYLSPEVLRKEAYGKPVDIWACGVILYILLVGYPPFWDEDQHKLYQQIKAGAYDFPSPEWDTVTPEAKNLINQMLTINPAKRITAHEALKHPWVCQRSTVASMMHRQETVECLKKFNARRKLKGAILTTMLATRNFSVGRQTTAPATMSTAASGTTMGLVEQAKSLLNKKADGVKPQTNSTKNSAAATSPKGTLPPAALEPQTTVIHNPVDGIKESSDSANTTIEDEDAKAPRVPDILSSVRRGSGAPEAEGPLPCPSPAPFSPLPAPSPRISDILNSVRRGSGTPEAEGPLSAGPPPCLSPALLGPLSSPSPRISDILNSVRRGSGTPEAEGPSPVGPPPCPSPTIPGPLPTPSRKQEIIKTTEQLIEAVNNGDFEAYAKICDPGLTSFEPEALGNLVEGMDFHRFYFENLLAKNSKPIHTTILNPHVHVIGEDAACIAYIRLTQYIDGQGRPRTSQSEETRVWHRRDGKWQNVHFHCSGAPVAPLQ
# CSNK1A1L (human), sequence (Q8N752 whole entry, looked up): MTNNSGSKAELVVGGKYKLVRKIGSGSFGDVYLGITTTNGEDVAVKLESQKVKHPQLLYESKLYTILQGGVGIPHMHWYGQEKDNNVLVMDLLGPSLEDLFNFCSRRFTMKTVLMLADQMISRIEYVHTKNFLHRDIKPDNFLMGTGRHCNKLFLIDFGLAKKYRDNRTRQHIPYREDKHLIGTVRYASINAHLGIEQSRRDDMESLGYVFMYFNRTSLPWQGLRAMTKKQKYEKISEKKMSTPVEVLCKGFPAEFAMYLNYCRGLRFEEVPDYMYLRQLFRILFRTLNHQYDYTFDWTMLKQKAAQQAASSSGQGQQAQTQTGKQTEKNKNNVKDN
smiles,measurement,setting,value
CNC(=O)c1cc(Oc2ccc(NC(=O)Nc3ccc(Cl)c(C(F)(F)F)c3)cc2)ccn1,per cent of control,ADCK3 (human),90%
same,per cent of control,CAMK2A (human),93%
same,per cent of control,CAMK2B (human),96%
same,per cent of control,CAMK2D (human),89%
same,per cent of control,CDK13 (human),98%
same,per cent of control,CDKL3 (human),0.35%
same,per cent of control,CLK3 (human),84%
same,per cent of control,CSNK1A1L (human),100%
same,per cent of control,CSNK2A2 (human),82%
same,per cent of control,DAPK2 (human),100%
same,per cent of control,EPHA5 (human),16%
same,per cent of control,EPHB6 (human),2.4%
same,per cent of control,FGR (human),41%
same,per cent of control,[1],12%
same,per cent of control,GAK (human),62%
same,per cent of control,GRK7 (human),100%
same,per cent of control,HIPK1 (human),17%
same,per cent of control,LTK (human),76%
same,per cent of control,LYN (human),11%
same,per cent of control,MAK (human),38%
same,per cent of control,MAP3K10 (human),85%
same,per cent of control,MAP4K4 (human),8.7%
same,per cent of control,MAPK13 (human),21%
same,per cent of control,MAPK3 (human),95%
same,per cent of control,MAPK8 (human),88%
same,per cent of control,MARK4 (human),93%
same,per cent of control,MERTK (human),2.4%
same,per cent of control,MYLK4 (human),88%
same,per cent of control,NEK11 (human),99%
same,per cent of control,PAK7 (human),100%
same,per cent of control,PHKG1 (human),73%
same,per cent of control,PIM1 (human),100%
same,per cent of control,PIP4K2B (human),89%
same,per cent of control,PLK1 (human),100%
same,per cent of control,PRKG2 (human),100%
same,per cent of control,PTK2B (human),99%
same,per cent of control,[2],0%
same,per cent of control,[3],0%
same,per cent of control,RIPK1 (human),88%
same,per cent of control,SRMS (human),96%
same,per cent of control,TAOK1 (human),12%
same,per cent of control,WEE1 (human),100%
CNC(=O)c1cc(Oc2ccc(NC(=O)Nc3ccc(Cl)c(C(F)(F)F)c3)cc2)cc[n+]1[O-],per cent of control,ADCK3 (human),86%
same,per cent of control,CAMK2A (human),96%
same,per cent of control,CAMK2B (human),89%
same,per cent of control,CAMK2D (human),87%
same,per cent of control,CDK13 (human),40%
same,per cent of control,CDKL3 (human),0.3%
same,per cent of control,CLK3 (human),100%
same,per cent of control,CSNK1A1L (human),100%
same,per cent of control,CSNK2A2 (human),70%
same,per cent of control,DAPK2 (human),100%
same,per cent of control,EPHA5 (human),15%
same,per cent of control,EPHB6 (human),1.8%
same,per cent of control,FGR (human),28%
same,per cent of control,[1],9%
same,per cent of control,GAK (human),70%
same,per cent of control,GRK7 (human),100%
same,per cent of control,HIPK1 (human),44%
same,per cent of control,LTK (human),73%
same,per cent of control,LYN (human),11%
same,per cent of control,MAK (human),35%
same,per cent of control,MAP3K10 (human),88%
same,per cent of control,MAP4K4 (human),0.5%
same,per cent of control,MAPK13 (human),0.55%
same,per cent of control,MAPK3 (human),92%
same,per cent of control,MAPK8 (human),13%
same,per cent of control,MARK4 (human),100%
same,per cent of control,MERTK (human),2%
same,per cent of control,MYLK4 (human),100%
same,per cent of control,NEK11 (human),100%
same,per cent of control,PAK7 (human),82%
same,per cent of control,PHKG1 (human),77%
same,per cent of control,PIM1 (human),100%
same,per cent of control,PIP4K2B (human),88%
same,per cent of control,PLK1 (human),100%
same,per cent of control,PRKG2 (human),100%
same,per cent of control,PTK2B (human),91%
same,per cent of control,[2],0%
same,per cent of control,[3],0%
same,per cent of control,RIPK1 (human),87%
same,per cent of control,SRMS (human),10%
same,per cent of control,TAOK1 (human),11%
same,per cent of control,WEE1 (human),100%
